These results are taken from patent publication US20230372221A1, “USE OF THIOPYRIDINONE COMPOUNDS FOR PREVENTING THE FORMATION OF CUTANEOUS BLACKHEADS” (L'OREAL, priority 2020, published 2023).

Each structure is given as a SMILES string.

The assay concerns oxidation of the L-DOPA under the action of the bacterial extract (intracellular extract of Cutibacterium acnes CIP 53.117). Briefly: In vitro evaluation of the ability to inhibit the development of the colour (absorbance at 475 nm of L-DOPA + Cutibacterium acnes extract). It counts as biochemical. Particulars: for inhibiting the development of the colour (result in words): compared with Reference (absence of treatment); for optical density at 475 nm: 32° C.; for % inhib (percentage of inhibition of the formation of the coloured product): from initial rate of oxidation between 10 and 40 minutes vs reference composition. An excerpt:
This method is based on the measurement of absorbance, over time, carried out directly on a composition formed of a mixture of intracellular extract of bacteria of Cutibacterium acnes type, of 3,4-dihydroxy-L-phenylalanine (L-DOPA) and of a test compound. The measurements are compared with those carried out for a mixture of an intracellular extract of bacteria of Cutibacterium acnes type and of 3,4-dihydroxy-L-phenylalanine (L-DOPA), in the absence of test compound (reference). The method is adapted from a method for the enzymatic assay of the tyrosinase activity (Behbahani et al., Microchemical Journal (1993), 47, 251), which is based on the absorbance properties at 475 nm of a coloured intermediate of the pathway for the biosynthesis of melanin starting from L-DOPA, namely dopachrome, a product of the oxidation of L-DOPA. An intracellular extract of bacteria of Cutibacterium acnes CIP 53.117 type stored at 4° C. in the lyophilized form is suspended in 1×PBS (supplied by Gibco BRL Life Technologies) at a concentration of 6 mg/ml. A solution of L-DOPA at a concentration of 0.5 mg/ml is prepared by bringing together L-DOPA (supplied by Sigma-Aldrich) and milliQ water, so as to have an L-DOPA concentration of 1 mg/ml, then diluting with 1×PBS (Dulbecco's Phosphate Buffered Saline, supplied by Gibco BRL Life Technologies). The mixture of 50 μl of these two solutions and of 100 μl of 1×PBS (Dulbecco's Phosphate Buffered Saline, supplied by Gibco BRL Life Technologies) results in a composition with a total volume of 200 μl containing L-DOPA (at a concentration of 125 μg/ml) and Cutibacterium acnes extract (at a concentration of 1.5 mg/ml). The test compositions and the reference composition are introduced separately into wells of a 96-well microplate suitable for reading in visible spectrophotometry, and placed at a temperature of 32° C. The formation of a coloured product is monitored over time by spectrophotometry. To do this, the absorbance, or optical density (O.D.), is measured at 475 nm from the time 0 to the time 2 hours by means of a Spectra Max M5e reader and the Spectra Max software (the time 0 corresponds to the introduction of the composition into the wells). The ability to inhibit the development of the colour of a given compound was assessed by comparing the absorbance measurements obtained for the test compositions with those obtained for the reference composition. More specifically, the inhibitory effect of the test compound was evaluated by comparing the initial rate of oxidation of the L-DOPA under the action of the bacterial extract at 475 nm for the test composition with that of the reference composition in order to obtain a corresponding percentage of inhibition. In practice, the initial rate (Vi) of the oxidation reaction is calculated from the linear part of the curve of the graph of the absorbance values. As this part lies between 10 and 40 minutes (see the graph in FIG. 1), the initial rate of the oxidation reaction is determined using the following relationship: [formula] The percentage of inhibition (% inhib) of a given compound with regard to the formation of the coloured product is subsequently obtained using the values of the initial rate of the oxidation reaction for the reference composition (Viref) and for the test composition ([…]) according to the following relationship: [formula] Within the meaning of the invention, a compound is regarded as having an inhibitory effect if the % inhib value is at least 15%.

The mark [1] stands for this setting: test compound 100 μM, duration 0 minutes.
Where [2] appears, read: test compound 100 μM, duration 10 minutes.
[3] abbreviates: test compound 100 μM, duration 20 minutes.
[4] abbreviates: test compound 100 μM, duration 30 minutes.
Where [5] appears, read: test compound 100 μM, duration 40 minutes.
The mark [6] stands for this setting: test compound 100 μM, duration 60 minutes.
The mark [7] stands for this setting: test compound 100 μM, duration 80 minutes.
[8] abbreviates: test compound 100 μM, duration 100 minutes.
The mark [9] stands for this setting: test compound 100 μM, duration 120 minutes.

Turning to `O=c1cc(CO)occ1O` [Kojic acid, kojic acid, reference compound], the “inhibiting the development of the colour (result in words)” value (from here on “inhibiting the development of the colour”) was “does not make it possible to inhibit the development of the colour”. The “inhibiting the development of the colour” value (listed as kojic acid) is reported as “without effect”. Under setting [1], the “optical density at 475 nm” value worked out at 0.0599. In addition, the “optical density at 475 nm” value under setting [2] turned out to be 0.0614. Under setting [3], the “optical density at 475 nm” value came out at 0.0646. Besides, the “optical density at 475 nm” value under setting [4] stood at 0.0698. Also, under setting [5], the “optical density at 475 nm” value is 0.0741. Besides, under setting [6], the “optical density at 475 nm” value was determined as 0.0804. The “optical density at 475 nm” value under setting [7] is 0.0837. Also, the “optical density at 475 nm” value under setting [8] was 0.0845. Further, the “optical density at 475 nm” value under setting [9] came to 0.0843. Also, the “% inhib (percentage of inhibition of the formation of the coloured product)” value (test compound 100 μM) is recorded as −1%.
For `CCCCc1ccc(O)cc1O` [Lucinol, 4-butylresorcinol, reference compound], the “inhibiting the development of the colour” value was “does not make it possible to inhibit the development of the colour”. Under “listed as lucinol”, the “inhibiting the development of the colour” value is “without effect”. Also, under setting [1], the “optical density at 475 nm” value was 0.0552. Further, the “optical density at 475 nm” value under setting [2] is reported as 0.0563. For the same molecule, the “optical density at 475 nm” value under setting [3] worked out at 0.0591. The “optical density at 475 nm” value under setting [4] came to 0.0629. The “optical density at 475 nm” value under setting [5] is given as 0.0671. Also, under setting [6], the “optical density at 475 nm” value is 0.0730. Further, the “optical density at 475 nm” value under setting [7] turned out to be 0.0758. Also, under setting [8], the “optical density at 475 nm” value worked out at 0.0768. The “optical density at 475 nm” value under setting [9] is 0.0765. In addition, the “% inhib (percentage of inhibition of the formation of the coloured product)” value (test compound 100 μM) was 0%.
For `O=C(O)CNC(=O)c1ccc[nH]c1=S` [Compound 2, N-[(2-thioxo-1,2-dihydropyridin-3-yl)carbonyl]glycine], the “inhibiting the development of the colour” value is reported as “very effective”. The “optical density at 475 nm” value under setting [1] turned out to be 0.0547. Moreover, under setting [2], the “optical density at 475 nm” value was found to be 0.0561. Besides, the “optical density at 475 nm” value under setting [3] turned out to be 0.0567. Under setting [4], the “optical density at 475 nm” value amounted to 0.0569. Also, the “optical density at 475 nm” value under setting [5] amounted to 0.0574. In addition, the “optical density at 475 nm” value under setting [6] is listed as 0.0578. Also, the “optical density at 475 nm” value under setting [7] stood at 0.0578. In addition, the “optical density at 475 nm” value under setting [8] worked out at 0.0578. The “optical density at 475 nm” value under setting [9] is on record as 0.0580. The “% inhib (percentage of inhibition of the formation of the coloured product)” value (test compound 100 μM) is reported as 84%.
Regarding `CCNC(=O)c1ccc[nH]c1=S` [Compound 1, N-ethyl-2-thioxo-1,2-dihydropyridine-3-carboxamide], the “inhibiting the development of the colour” value is “very effective”. The “optical density at 475 nm” value (test compound 12.5 μM, duration 0 minutes) is 0.0553. For the setting “test compound 12.5 μM, duration 10 minutes”, the “optical density at 475 nm” value is on record as 0.0553. Further, the “optical density at 475 nm” value (test compound 12.5 μM, duration 20 minutes) is 0.0561. Besides, the “optical density at 475 nm” value (test compound 12.5 μM, duration 30 minutes) was 0.0569. For the same molecule, the “optical density at 475 nm” value (test compound 12.5 μM, duration 40 minutes) stood at 0.0584. Also, for the setting “test compound 12.5 μM, duration 60 minutes”, the “optical density at 475 nm” value is on record as 0.0605. Besides, the “optical density at 475 nm” value (test compound 12.5 μM, duration 80 minutes) turned out to be 0.0631. Further, the “optical density at 475 nm” value (test compound 12.5 μM, duration 100 minutes) was found to be 0.0661. In addition, the “optical density at 475 nm” value (test compound 12.5 μM, duration 120 minutes) was 0.0681. Further, the “% inhib (percentage of inhibition of the formation of the coloured product)” value (test compound 12.5 μM) came out at 66%. Under “test compound 25 μM, duration 0 minutes”, the “optical density at 475 nm” value stood at 0.0554. The “optical density at 475 nm” value (test compound 25 μM, duration 10 minutes) is recorded as 0.0560. Moreover, the “optical density at 475 nm” value (test compound 25 μM, duration 20 minutes) was determined as 0.0572. The “optical density at 475 nm” value (test compound 25 μM, duration 30 minutes) is 0.0587. In addition, for the setting “test compound 25 μM, duration 40 minutes”, the “optical density at 475 nm” value is 0.0596. Further, the “optical density at 475 nm” value (test compound 25 μM, duration 60 minutes) amounted to 0.0601. Also, the “optical density at 475 nm” value (test compound 25 μM, duration 80 minutes) is recorded as 0.0611. Where the note is “test compound 25 μM, duration 100 minutes”, the “optical density at 475 nm” value stood at 0.0627. Besides, the “optical density at 475 nm” value (test compound 25 μM, duration 120 minutes) worked out at 0.0640. Further, the “% inhib (percentage of inhibition of the formation of the coloured product)” value (test compound 25 μM) turned out to be 60%. Besides, the “optical density at 475 nm” value (test compound 50 μM, duration 0 minutes) is listed as 0.0541. The “optical density at 475 nm” value (test compound 50 μM, duration 10 minutes) is listed as 0.0565. Besides, under “test compound 50 μM, duration 20 minutes”, the “optical density at 475 nm” value stood at 0.0568. Also, the “optical density at 475 nm” value (test compound 50 μM, duration 30 minutes) was 0.0569. Where the note is “test compound 50 μM, duration 40 minutes”, the “optical density at 475 nm” value turned out to be 0.0568. Also, the “optical density at 475 nm” value (test compound 50 μM, duration 60 minutes) was found to be 0.0575. For the same molecule, the “optical density at 475 nm” value (test compound 50 μM, duration 80 minutes) came out at 0.0574. Further, the “optical density at 475 nm” value (test compound 50 μM, duration 100 minutes) was 0.0598. Moreover, where the note is “test compound 50 μM, duration 120 minutes”, the “optical density at 475 nm” value is 0.0597. Besides, the “% inhib (percentage of inhibition of the formation of the coloured product)” value (test compound 50 μM) is 96%. Further, under setting [1], the “optical density at 475 nm” value is on record as 0.0568. Further, the “optical density at 475 nm” value under setting [2] came out at 0.0555. Also, the “optical density at 475 nm” value under setting [3] is 0.0548. Also, under setting [4], the “optical density at 475 nm” value is 0.0561. Further, the “optical density at 475 nm” value under setting [5] amounted to 0.0555. Besides, the “optical density at 475 nm” value under setting [6] is reported as 0.0557. Moreover, the “optical density at 475 nm” value under setting [7] is recorded as 0.0559. For the same molecule, the “optical density at 475 nm” value under setting [8] turned out to be 0.0564. In addition, the “optical density at 475 nm” value under setting [9] stood at 0.0567. Besides, under “test compound 100 μM”, the “% inhib (percentage of inhibition of the formation of the coloured product)” value turned out to be 100%.
